Assay: gradient 5% acetonitrile 3 min, to 50% in 2 min, to 85% in 15 min, held 3 min, 100 µL/min
Conditions: column: Zorbax Extend-C18 2.1 x 50 mm; eluents: water / acetonitrile, 0.1% formic acid
How it was run: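 The system's dead and dwell volumes were 40 μL and 900 μL, with a Zorbax Extend-C18 column (2.1 × 50 mm, 1.8 μm) run at 100 μL/min in water and acetonitrile containing 0.1% formic acid each. Pure standards were analyzed in mixtures of ~100 molecules by HPLC–quadrupole time-of-flight mass spectrometry in positive and negative ionization mode. Retention time was assigned from computationally picked, manually inspected adduct peaks.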

Row | SMILES | RP-LC retention time [s]
1 | O=C(CN1C(=O)COc2ccc(C(=O)N3CCCC3)cc21)NCc1ccc2c(c1)OCO2 | 682
2 | O=C(c1ccc2[nH]ccc2c1)N1CCN(c2cc(-c3cccs3)[nH]n2)CC1 | 708
3 | COC(=O)c1c(-c2ccccc2)noc1NCc1cccc(OC)c1 | 677
4 | O=C(Nc1cccnc1)C1CCCN(S(=O)(=O)c2cc(-c3noc(C4CCC4)n3)cs2)C1 (centres undefined) | 893
5 | O=C(Cn1c(=O)cnc2cc(C(=O)NC3CCCC3)ccc21)NCc1ccc(F)cc1F | 721
6 | Cc1ccc(NC(=O)N2CCc3nc(-c4ccccc4)ncc3C2)c(Cl)c1 | 1080
7 | Cn1c(C(=O)NCCc2c[nH]c3ccccc23)cc2sccc21 | 916
8 | CCOc1ccc(-c2csc(Cc3nc(-c4ccc(OC)cc4)no3)n2)cc1 | 1230
9 | O=C(c1ccccn1)N1CCN(C(=O)c2nnn3c2COC(c2ccccc2)C3)CC1 (centres undefined) | 717
10 | CCc1nc(-c2csc(S(=O)(=O)N3CCCC(C(=O)Nc4ccc(C)cc4C)C3)c2)no1 (centres undefined) | 1070
11 | COc1ccc(NC(=O)c2ccc(N3C(=O)CCC3=O)cc2)c([N+](=O)[O-])c1 | 716
12 | O=C(Nc1ccc(F)c(Cl)c1)N1CCc2nc(-c3ccccc3)ncc2C1 | 1010
13 | CO[C@@H]1C=C2CCN(C)[C@@H]2C2c3cc4c(cc3C(=O)O[C@@H]21)OCO4 (some centres undefined) | 604
14 | CCC(=O)N1CCC2(C1)C(=O)N(C)c1ccc(OC)cc12 (centres undefined) | 652
15 | CCOc1ccc(NS(=O)(=O)c2cc(C(=O)Nc3ccc(F)cc3)n[nH]2)cc1 | 851
16 | O=C(Cn1cccc1-c1nnc(-c2ccccc2)o1)N1CCN(C2CCCCC2)CC1 | 687
17 | CCOCCCNC(=O)c1c(-c2cccc(Br)c2)noc1C | 869
18 | CCc1ccc(-n2c(CN3CCN(C(=O)NC(C)(C)C)CC3)nc3cccnc32)cc1 | 687
19 | Cc1nn(C)cc1S(=O)(=O)N1CCN(C(=O)c2ccco2)CC1 | 626
20 | Cc1nc(-c2csc(S(=O)(=O)N3CCC(C(=O)NCCC4=CCCCC4)CC3)c2)no1 | 971
21 | CC(C)c1ccc(C(=O)Nc2ccc3c(c2)Sc2ncccc2C(=O)N3C)cc1 | 950
22 | CCNc1cc(N2CCC(CCC(=O)NCc3cccc(C)c3)CC2)ncn1 | 659
23 | Cc1ccc(-c2ccnc3c(C(=O)NC(C)c4ccncc4)cnn23)cc1C (centres undefined) | 668

Row | SMILES | RP-LC retention time [s]
24 | Cc1noc(C2(NC(=O)C3CCC3)CCCCC2)n1 | 745
25 | CCCn1cc(CCNS(=O)(=O)c2c(C)cc(C)cc2C)c2cccnc21 | 962
26 | COC(=O)c1ccc(NCc2cc(O)ccc2O)cc1 | 680
27 | O=C1CCN(C(=O)C2(c3ccccc3)CC2)CCCCCCN1 | 721
28 | Cn1c(C2CCN(C(=O)Nc3ccc(Cl)cc3F)CC2)cc(=O)n2nccc12 | 670
29 | COc1ccccc1C(=O)N1CCN(c2nc3ccccc3n(C)c2=O)CC1 | 830
30 | CCn1c(CCNC(=O)c2ccc(C)s2)nc2cccnc21 | 634
31 | COc1ccccc1NS(=O)(=O)c1cc(-c2cc(C(F)(F)F)on2)sc1C | 1110
32 | Cc1ccc(NS(=O)(=O)c2cc3c(=O)n(C)ncn3c2)cc1F | 841
33 | O=C(Cn1cc(-c2nc(-c3cccs3)no2)ccc1=O)c1ccc2c(c1)OCO2 | 850
34 | CCOC(=O)Cc1csc(NC(=O)c2cc(=O)c(OCc3ccccc3)c[nH]2)n1 | 797
35 | O=C(C1CC1)N1CCc2sc(S(=O)(=O)Nc3cccc(Cl)c3)cc2C1 | 879
36 | O=C(Nc1ccc(N2CCN(C3CCCC3)C2=O)nc1)c1cccc(F)c1 | 876
37 | CCN1C(=O)COc2ccc(-c3noc(COc4ccc(F)cc4)n3)cc21 | 1030
38 | Cc1ccc2c(=O)c(C(=O)Nc3cccc(F)c3)c[nH]c2n1 | 770
39 | C[C@@H](C(=O)NCC1(CC(=O)O)CCCCC1)n1nnc2ccccc2c1=O | 748
40 | CCCCN(CCCC)C(=O)CN1C[C@H](c2ccc3c(c2)OCO3)[C@@H](C(=O)O)[C@@H]1c1ccc(OC)cc1 | 974
41 | O=C(c1cc(-c2cccc(F)c2)ns1)N1CCCC1 | 924
42 | CCOc1ccc(S(=O)(=O)N2CCCC2C(=O)Nc2nnc(CC)s2)cc1 (centres undefined) | 805
43 | Cc1ccc(CNC(=O)c2ccc(-c3cccs3)nc2)o1 | 869
44 | CCc1ccc(S(=O)(=O)N2CCC3(CC2)NCCN=C3NCc2ccc(F)cc2)cc1 | 753
45 | COc1cccc(NS(=O)(=O)c2ccc(-c3nnc(C4CCC4)o3)o2)c1 | 881
46 | O=C(O)c1cn(Cc2ccccc2)c(=O)c2ccccc12 | 788

Row | SMILES | RP-LC retention time [s]
47 | CCCN1C(=O)CN(S(=O)(=O)c2ccccc2)CC1(C)C(=O)NCc1ccccc1 (centres undefined) | 809
48 | Cc1cc(=O)n(CC(=O)Nc2ccc(Br)cc2F)c(N2CCC(C)CC2)n1 | 750
49 | Cc1nn(-c2ccccc2)c2sc(C(=O)NC(C)C)cc12 | 966
50 | Cc1nc(N2CCN(c3ccccn3)CC2)nc2c1C(=O)CC(c1ccccc1)C2 (centres undefined) | 757
51 | Cc1ccc(NC(=O)COc2cccc3c(=O)n(C)ccc23)cc1 | 795
52 | CCCC(NC(=O)Cc1ccc(OCC)c(OCC)c1)C(=O)Nc1nc2ccccc2[nH]1 (centres undefined) | 1070
53 | CC(C)c1nc(C2Cc3ccccc3N2C(=O)NCc2ccco2)no1 (centres undefined) | 889
54 | O=C(NCCc1ccccc1)C1CCN(C(=O)c2ncn3c2COC(c2ccc(Cl)cc2)C3)CC1 (centres undefined) | 815
55 | COc1ccc(-c2csc(NC(=O)CS(=O)(=O)c3ccc(Cl)cc3)n2)c(OC)c1 | 1020
56 | CCCN1CCN(C(=O)CSCc2nc3cccnc3n2C2CCCCC2)CC1 | 638
57 | Cc1ccc(CSc2nc(CC(=O)NCc3nnc(C)o3)cs2)cc1 | 724
58 | C=CCn1c(=O)c2ccccc2n(Cc2nc(-c3ccc(C)c(C)c3)no2)c1=O | 1140
59 | Cc1cc(-c2ccc(S(=O)(=O)N3CCC(C(=O)N4CCCCCC4)CC3)o2)n[nH]1 | 772
60 | CCN1C(=O)C2(CCN(S(=O)(=O)c3c(C)nn(C)c3C)CC2)c2ccccc21 | 841
61 | O=C(NCCc1ccccc1)c1ccc2c(c1)NC(=O)C1CCCCN21 (centres undefined) | 806
62 | COc1ccc(OC)c(CNC(=O)C2CCCN(c3nccnc3Sc3ccccc3)C2)c1 (centres undefined) | 1000
63 | Cc1ccccc1NC(=O)Nc1c(-c2ccc(F)cc2)nc2ccccn12 | 661
64 | CCCNc1cc(N2CCC(CCC(=O)N(C)CCc3ccccn3)CC2)ncn1 | 570
65 | O=C(N1CCC(NS(=O)(=O)Cc2ccccc2F)CC1)N1C[C@H]2C[C@H](C1)[C@H]1CCCC(=O)N1C2 | 689
66 | Cn1cnc2cc(CNC(=O)c3cccc(Cl)c3)ccc21 | 631
67 | C=CCn1c(=O)c2ccccc2n(Cc2nc(-c3ccc(F)c(Br)c3)no2)c1=O | 1170
68 | CC(C)C(=O)NCC12CCC=C1N(C)C(=O)CC2 (centres undefined) | 636
69 | COc1ccc(-c2cc(N3CCC(NC(=O)c4cc(OC)c(OC)c(OC)c4)C3)n[nH]2)cc1 (centres undefined) | 688

Row | SMILES | RP-LC retention time [s]
70 | Cc1cc(F)ccc1NS(=O)(=O)c1ccc(-c2c(C)noc2C)cc1 | 964
71 | Cc1ccc(CNc2c(-c3cccc(Br)c3)nc3ncccn23)cc1 | 927
72 | Cc1ccc(NC(=O)Cn2c(=O)n(-c3cccc(C)c3)c(=O)c3c2cc(C)n3C)cc1 | 899
73 | COc1ccc(Nc2ncnc3[nH]ncc23)c(OC)c1 | 568
74 | O=C(COc1ccc(Cl)cc1)Nc1ccc(-c2nnc3n2CCCC3)cc1 | 757
75 | Fc1ccccc1-c1noc(N2CCN(c3ccccn3)CC2)n1 | 649
76 | Cc1cccc(N2CCN(C(=O)c3cn4ccccc4n3)CC2)c1C | 776
77 | O=C(Cn1ncc2c3ccccc3n(Cc3ccccc3)c2c1=O)N1CCN(c2ncccn2)CC1 | 902
78 | O=C(c1cncc(Br)c1)N1CCC(OCC2CC2)C1 (centres undefined) | 730
79 | Cc1cc(C(=O)N2CCC3(CCC3OCC(N)=O)CC2)c(C)o1 (centres undefined) | 681
80 | O=C(Cn1nc2c3cc(-c4ccc(Cl)cc4)nn3ccn2c1=O)NC1CCCCC1 | 906
81 | CCN1C(=O)CCc2cc(NS(=O)(=O)Cc3ccccc3Cl)ccc21 | 803
82 | Cc1cccc(NC(=O)CN2CCc3[nH]c4c(C)c(C)ccc4c(=O)c3C2)c1 | 626
83 | CCn1cnc(S(=O)(=O)N2CCC(C(=O)Nc3ccc(OC)cc3OC)CC2)c1 | 706
84 | COCC(=O)NC1CCC12CCN(C(=O)C(C)C)CC2 (centres undefined) | 636
85 | CNC(=O)c1c(NC(=O)c2ccccc2Cl)sc2c1CCC2 | 1010
86 | Cc1ccc(CNC(=O)c2cnn3c(-c4ccc(Cl)cc4)ccnc23)o1 | 1050
87 | CCN1C(=O)C(C)(C(=O)NCc2ccc(Br)cc2)Oc2cccnc21 (centres undefined) | 916
88 | CCOc1ccccc1N1C=C(C(=O)OC)S(=O)(=O)c2ccccc21 | 849
89 | Cc1ccc2nc3sc(C(=O)Nc4cccc(C(F)(F)F)c4)cc3c(=O)n2c1 | 980

Source: the METLIN SMRT retention time set (Domingo-Almenara et al. 2019)
